Measurements as given in the supplement of paper PMC13380429.

Key:
Conditions in all cases: 72 h
U2OS [1] = assay: drug sensitivity score (DSS) for viability; higher = more toxic; extreme values may be limits of the assay
HepG2 [2] = assay: as above
Vero E6 [3] = assay: as above
Calu-3 [4] = assay: as above
Caco-2 [5] = assay: as above
U2OS [6] = assay: relative viability EC50 (midpoint between 100% and the lowest measured viability); higher = less toxic
HepG2 [7] = assay: as above
Vero E6 [8] = assay: as above
Calu-3 [9] = assay: as above
Caco-2 [10] = assay: as above
U2OS [11] = assay: cell viability relative to DMSO; higher = less toxic
HepG2 [12] = assay: as above
Vero E6 [13] = assay: as above
Calu-3 [14] = assay: as above
Caco-2 [15] = assay: as above

SMILES | drug sensitivity score (U2OS [1]) | drug sensitivity score (HepG2 [2]) | drug sensitivity score (Vero E6 [3]) | drug sensitivity score (Calu-3 [4]) | drug sensitivity score (Caco-2 [5]) | relative viability EC50 (U2OS [6]) | relative viability EC50 (HepG2 [7]) | relative viability EC50 (Vero E6 [8]) | relative viability EC50 (Calu-3 [9]) | relative viability EC50 (Caco-2 [10]) | cell viability (U2OS [11]; 1 nM) | cell viability (U2OS [11]; 10 nM) | cell viability (U2OS [11]; 100 nM) | cell viability (U2OS [11]; 1000 nM) | cell viability (U2OS [11]; 10000 nM) | cell viability (HepG2 [12]; 1 nM) | cell viability (HepG2 [12]; 10 nM) | cell viability (HepG2 [12]; 100 nM) | cell viability (HepG2 [12]; 1000 nM) | cell viability (HepG2 [12]; 10000 nM) | cell viability (Vero E6 [13]; 1 nM) | cell viability (Vero E6 [13]; 10 nM) | cell viability (Vero E6 [13]; 100 nM) | cell viability (Vero E6 [13]; 1000 nM) | cell viability (Vero E6 [13]; 10000 nM) | cell viability (Calu-3 [14]; 1 nM) | cell viability (Calu-3 [14]; 10 nM) | cell viability (Calu-3 [14]; 100 nM) | cell viability (Calu-3 [14]; 1000 nM) | cell viability (Calu-3 [14]; 10000 nM) | cell viability (Caco-2 [15]; 1 nM) | cell viability (Caco-2 [15]; 10 nM) | cell viability (Caco-2 [15]; 100 nM) | cell viability (Caco-2 [15]; 1000 nM) | cell viability (Caco-2 [15]; 10000 nM)
C[N+](C)(C)CC#CCN1CCCC1=O [oxotremorine-M] | 0 | 0 | 0 | 0 | 0 | > 10 µM | > 10 µM | > 10 µM | > 10 µM | > 10 µM | 102% | 105% | 97.5% | 102% | 99.5% | 92% | 108% | 92% | 102% | 99.1% | 94.5% | 93.5% | 93.5% | 96% | 95.7% | 94.9% | 98.3% | 91% | 102% | 102% | 102% | 104% | 93.7% | 107% | 98.6%
Cn1c(=O)[nH]c2ncn(C)c2c1=O [paraxanthine] | 0 | 0 | 0 | 0 | 0 | > 10 µM | > 10 µM | > 10 µM | > 10 µM | > 10 µM | 97.4% | 101% | 98.2% | 100% | 99.7% | 102% | 100% | 106% | 103% | 93.2% | 95.5% | 95.8% | 99.2% | 93.5% | 98.2% | 94.9% | 101% | 92.9% | 89.8% | 98.1% | 95.4% | 106% | 97.4% | 102% | 91.8%
FC(F)(F)C(F)(F)C(F)(F)N(C(F)(F)C(F)(F)C(F)(F)F)C(F)(F)C(F)(F)C(F)(F)F [perfluamine] | 0 | 0 | 0 | 0 | 0 | > 10 µM | > 10 µM | > 10 µM | > 10 µM | > 10 µM | 105% | 97% | 99.8% | 97.1% | 100% | 101% | 97.7% | 92.2% | 101% | 93.7% | 96.5% | 97.9% | 100% | 103% | 91.1% | 103% | 93.2% | 99.7% | 107% | 98.3% | 98% | 96.8% | 95% | 88.6% | 101%
CN1C(=O)CC(c2ccccc2)C1=O (stereo not given) [phensuximide] | 0 | 0 | 0 | 0 | 0 | > 10 µM | > 10 µM | > 10 µM | > 10 µM | > 10 µM | 96.2% | 99.8% | 100% | 98.3% | 106% | 108% | 110% | 96.4% | 98.3% | 98.9% | 104% | 103% | 99.5% | 103% | 98.3% | 100% | 108% | 107% | 99.1% | 103% | 99.3% | 102% | 97.2% | 90.9% | 103%
Oc1cc(O)cc(O)c1 [phloroglucin] | 0 | 0 | 0 | 0 | 0 | > 10 µM | > 10 µM | > 10 µM | > 10 µM | > 10 µM | 101% | 98.3% | 98.7% | 98.2% | 98.7% | 103% | 104% | 91.8% | 99% | 104% | 101% | 102% | 98.6% | 103% | 101% | 104% | 105% | 113% | 90.1% | 98.8% | 113% | 91.5% | 104% | 91.6% | 104%
Cc1ccc2c(c1)c1c3n2CCNC3CCC1 (stereo not given) [pirlindole] | 0 | 0.3 | 0 | 0 | 0 | > 10 µM | > 10 µM | > 10 µM | > 10 µM | > 10 µM | 100% | 102% | 96.9% | 103% | 102% | 100% | 98% | 99.9% | 102% | 82.4% | 97.7% | 100% | 97.6% | 101% | 101% | 98.1% | 100% | 98% | 102% | 99.1% | 90.9% | 101% | 97.9% | 101% | 104%
Nc1ccc(C(=O)O)cc1 [potassium-p-aminobenzoate] | 0 | 0 | 0 | 0 | 0 | > 10 µM | > 10 µM | > 10 µM | > 10 µM | > 10 µM | 96.2% | 101% | 94.4% | 103% | 94.9% | 102% | 93.6% | 109% | 112% | 103% | 105% | 105% | 104% | 97.1% | 100% | 107% | 97.1% | 99% | 105% | 103% | 95.6% | 97.1% | 95.1% | 102% | 102%
OC(CCN1CCCCC1)(c1ccccc1)c1ccccc1 [pridinol] | 0 | 0 | 0 | 0 | 0 | > 10 µM | > 10 µM | > 10 µM | > 10 µM | > 10 µM | 99.5% | 102% | 93.7% | 93.5% | 100% | 101% | 95.3% | 101% | 106% | 106% | 99.8% | 103% | 100% | 93.8% | 98.5% | 97.8% | 96.9% | 91.7% | 99.4% | 93.2% | 96.9% | 108% | 97.9% | 94.9% | 99%
CCCNC(C)C(=O)Nc1ccccc1C (stereo not given) [prilocaine] | 0 | 0 | 0 | 0 | 0 | > 10 µM | > 10 µM | > 10 µM | > 10 µM | > 10 µM | 100% | 108% | 99.3% | 105% | 96.9% | 113% | 91.9% | 102% | 96.2% | 98.8% | 101% | 98.9% | 92.2% | 99.8% | 96.9% | 89% | 102% | 95.5% | 94% | 101% | 95.1% | 100% | 99.1% | 102% | 97.3%
C[C@H](N[C@@H](CCc1ccccc1)C(=O)O)C(=O)N1Cc2ccccc2C[C@H]1C(=O)O [quinaprilat] | 0 | 0 | 0 | 0 | 0 | > 10 µM | > 10 µM | > 10 µM | > 10 µM | > 10 µM | 94.7% | 96.1% | 98.3% | 98.1% | 106% | 107% | 94.9% | 98.4% | 110% | 94.9% | 91.8% | 98.9% | 91.8% | 104% | 106% | 97.5% | 97.6% | 91.3% | 97% | 93.5% | 102% | 98.2% | 96.8% | 100% | 92.1%
c1cc2c(cc1[C@H]1OC[C@H]3[C@@H]1CO[C@@H]3c1ccc3c(c1)OCO3)OCO2 [sesamin] | 0 | 0 | 0 | 0 | 0 | > 10 µM | > 10 µM | > 10 µM | > 10 µM | > 10 µM | 96.9% | 100% | 102% | 104% | 99.3% | 105% | 107% | 102% | 91.1% | 106% | 99.8% | 103% | 94.6% | 99.3% | 99.4% | 109% | 103% | 102% | 98.1% | 90.1% | 93.7% | 95% | 98.4% | 95.7% | 89.2%
